Legend:
[1] = molecular target: vasopressin-2 receptor (V2R); design: method as in PMID 17435162; details: cited from earlier work
[2] = molecular target: T1, CXCR1 (Homo sapiens, UniProt P25024); assay: Membrane-based NanoBRET saturation binding assay, CXCR1_Nluc membranes
T1 construct: host or cells: HEK293T, transient
T1 sequence (P25024 1-350): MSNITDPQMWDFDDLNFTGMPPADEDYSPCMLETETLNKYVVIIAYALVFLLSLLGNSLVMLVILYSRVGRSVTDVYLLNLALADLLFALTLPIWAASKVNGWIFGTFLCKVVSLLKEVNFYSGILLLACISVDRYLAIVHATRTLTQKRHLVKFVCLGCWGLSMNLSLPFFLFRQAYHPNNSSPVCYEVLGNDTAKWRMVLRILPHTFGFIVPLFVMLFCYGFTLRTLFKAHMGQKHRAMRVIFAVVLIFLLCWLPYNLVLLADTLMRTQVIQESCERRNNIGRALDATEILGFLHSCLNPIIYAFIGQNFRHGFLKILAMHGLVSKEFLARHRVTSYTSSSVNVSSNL
Procedure: (§1) Emission spectra of Nluc -labeled CCR1 (CCR1_Nluc) protein: The emission spectra of CCR1_Nluc has already been reported by Toy et al.1 For a confirmation of the reported data with new CCR1_Nluc membrane batches, furimazine (Promega, Mannheim, Germany 1:2000) was added to the membrane preparations (2 µg protein/well). […]
(§2) NanoBRET binding assays: Membrane-based NanoBRET saturation assay: For the establishment of our NanoBRET binding assay, we referred to recently published protocols. […]
(§3) Then, 20 µL of the membrane preparations diluted in assay buffer (3 µg total protein/well) were added and the plates were incubated for 90 min at 37 °C. Subsequently, 5 µL of a furimazine solution (Promega, Mannheim, Germany, final assay dilution: 1:5,000) were added to each well (final assay volume: 35 µL) before measuring luminescence with a CLARIOstar microplate reader using 620/10 nm and 475/30 nm emission filters after 5 min of incubation in the dark. Bioluminescence resonance energy transfer (BRET) was determined as the ratio of acceptor fluorescence and donor luminescence. […] Specific binding signals were calculated as a difference of total and non-specific binding. If required, netBRET values were calculated as the difference between total BRET values and the values obtained in the absence of a fluorescent ligand. […]

[3] = molecular target: T2, CCR9 (Homo sapiens, UniProt P51686); assay: Membrane-based NanoBRET saturation binding assay, CCR9_Nluc membranes; details: compared with CCR1
T2 construct: host or cells: HEK293T, transient
T2 sequence (P51686 1-369): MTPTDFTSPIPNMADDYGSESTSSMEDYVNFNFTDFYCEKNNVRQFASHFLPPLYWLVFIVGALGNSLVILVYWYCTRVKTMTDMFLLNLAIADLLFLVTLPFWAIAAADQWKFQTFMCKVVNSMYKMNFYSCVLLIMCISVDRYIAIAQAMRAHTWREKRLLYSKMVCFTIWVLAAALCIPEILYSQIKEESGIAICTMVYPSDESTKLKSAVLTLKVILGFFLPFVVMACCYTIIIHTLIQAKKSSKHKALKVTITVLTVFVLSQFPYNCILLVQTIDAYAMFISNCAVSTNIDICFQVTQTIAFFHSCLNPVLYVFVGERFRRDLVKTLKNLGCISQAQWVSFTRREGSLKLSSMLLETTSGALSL
Procedure: as §1, §2, §3

Row | SMILES | Ki [1] [µM] | Kd [2] [µM] | Binding signal for CCR9 [3]
1 | O=C(C1=C(O)C(=O)N(CCc2ccc(O)cc2)C1c1ccc(F)cc1)c1ccccc1 (racemic) [compound 23] | ~0.07 | – | –
2 | CN(C)c1ccc2c(-c3cc(C(=O)NCCOCCOCc4cn(CCCC(=O)C5=C(O)C(=O)N(c6ccc(Br)cc6F)C5C5CCCCC5)nn4)ccc3C(=O)[O-])c3ccc(=[N+](C)C)cc-3oc2c1 (stereo not drawn) [compound 12] | – | 12.3 ± 0.3 | much weaker

Reference: publication PMC11249626, “Fluorophore-Labeled Pyrrolones Targeting the Intracellular Allosteric Binding Site of the Chemokine Receptor CCR1” (ACS Pharmacology & Translational Science, 2024)
